Consider 42 molecules from patent publication US10155985B2, “Evaluation of eosinophilic esophagitis” (CHILDREN'S HOSPITAL MEDICAL CENTER, priority 2004, dated 2018).

First the molecules themselves.
B1: SEQ_ID_#58 (nucleic acid, listed as Homo sapiens)
DNA: ATGAAGGCCAACTACAGCGCAGAGGAGCGCTTTCTCCTGCTGGGTTTCTCCGACTGGCCTTCCCTGCAGCCGGTCCTCTTCGCCCTTGTCCTCCTGTGCTACCTCCTGACCTTGACGGGCAACTCGGCGCTGGTGCTGCTGGCGGTGCGCGACCCGCGCCTGCACACGCCCATGTACTACTTCCTCTGCCACCTGGCCTTGGTAGACGCGGGCTTCACTACTAGCGTGGTGCCGCCGCTGCTGGCCAACCTGCGCGGACCAGCGCTCTGGCTGCCGCGCAGCCACTGCACGGCCCAGCTGTGCGCATCGCTGGCTCTGGGTTCCGCCGAATGCGTCCTCCTGGCGGTGATGGCTCTGGACCGCGCGGCCGCAGTGTGCCGCCCGCTGCGCTATGCGGGGCTCGTCTCCCCGCGCCTATGTCGCACGCTGGCCAGCGCCTCCTGGCTAAGTGGCCTCACCAACTCGGTTGCGCAAACCGCGCTCCTGGCTGAGCGGCCGCTGTGCGCGCCCCGCCTGCTGGACCACTTCATCTGTGAGCTGCCGGCGTTGCTCAAGCTGGCCTGCGGAGGCGACGGAGACACTACCGAGAACCAGATGTTCGCCGCCCGCGTGGTCATCCTGCTGCTGCCGTTTGCCGTCATCCTGGCCTCCTACGGTGCCGTGGCCCGAGCTGTCTGTTGCATGCGGTTCAGCGGAGGCCGGAGGAGGGCGGTGGGCACGTGTGGGTCCCACCTGACAGCCGTCTGCCTGTTCTACGGCTCGGCCATCTACACCTACCTGCAGCCCGCGCAGCGCTACAACCAGGCACGGGGCAAGTTCGTATCGCTCTTCTACACCGTGGTCACACCTGCTCTCAACCCGCTCATCTACACCCTCAGGAATAAGAAAGTGAAGGGGGCAGCGAGGAGGCTGCTGCGGAGTCTGGGGAGAGGCCAGGCTGGGCAGTGA
B2: SEQ_ID_#65 (nucleic acid, listed as Homo sapiens)
DNA: B1 DNA
B3: SEQ_ID_#72 (nucleic acid, listed as Homo sapiens)
DNA: AGCTATTCATTCATTTAATGAATATTTTTAATATCGATGTACATGCCAGATAATGAAGAGGAGGGGTGTTACAGAAGTATACAACAAATTGTATCATTCAGCAATCCTTTATCCTAGTGGGGAAGATGACTATACAGATAATTACAACTTAAGGCCATTTTTTGGATAAGAAACATAAAAGTGGTACAAACAAAAGTTCAAGGAGGCAAAGACCACTTCTTATTCTGGTTATATGGATAGCCTTCATGGAGAAGGCTTCATGACAGTTGGGTTGGGTCTTGAAGATGTCTACAGGTAGAGCCTCAGAAAAAGGAATATGAAACATAGGGAACAGTAGGAGGAGGGCAGCTTTAGTGACTGGCTCGGTTATACTAGAGCATTGGGATTGTAGAGGAGAATCATGATTGATTAAGGCTATATAGGGCAGTTAGGGCCAGATACTGGGGGAATTTGAATATCAGACTGTTATTTGATGAACAGTGGGAGCAGCTGAAGGTTTTTTTTTTTTTTTTAAAAAAAACAACCTTATTAAGGTAGTG
B4: S100P (nucleic acid, listed as Homo sapiens)
DNA: TGAGGCTGCCTTATAAAGCACCAAGAGGCTGCCAGTGGGACATTTTCTCGGCCCTGCCAGCCCCCAGGAGGAAGGTGGGTCTGAATCTAGCACCATGACGGAACTAGAGACAGCCATGGGCATGATCATAGACGTCTTTTCCCGATATTCGGGCAGCGAGGGCAGCACGCAGACCCTGACCAAGGGGGAGCTCAAGGTGCTGATGGAGAAGGAGCTACCAGGCTTCCTGCAGAGTGGAAAAGACAAGGATGCCGTGGATAAATTGCTCAAGGACCTGGACGCCAATGGAGATGCCCAGGTGGACTTCAGTGAGTTCATCGTGTTCGTGGCTGCAATCACGTCTGCCTGTCACAAGTACTTTGAGAAGGCAGGACTCAAATGATGCCCTGGAGATGTCACAGATTCCTGGCAGAGCCATGGTCCCAGGCTTCCCAAAAGTGTTTGTTGGCAATTATTCCCCTAGGCTGAGCCTGCTCATGTACCTCTGATTAATAAATGCTTATGAAATGA
B5: SEQ_ID_#783 (nucleic acid, listed as Homo sapiens)
DNA: TATCACGCACAAATTGCAATTACTTCACACTCACGATAACCCATTAATCTGTGAAGGATTAATCTGTTCATGAAGGCAGGGCCCTCATGATGGAATCACATCTTAAAGCCCCTACGTCTGAGTACTGTTACATTGGGGATTTAGTTTTAATATGATTTTCAGAGCAGAAAAACATTCAAACCATAGCAATATGTATTGAATATCTAGATCATTTCCAAATAAGATATTAATATGATACTGAAACATTTATTGCTGAACATAAATTTAGAACTTACTTTGCCTACCTATTACAGAAGAACAAAAGATATTTGGGCCTATTAAACCTTTCCTCTGCCATTTCCTGTCCTGTGTCATAGGACTAGGAATCGTGTTTCTAGAAGGTATGAAATCGTGTGCTTGCAAACTTGGAAGAAAACAGTTCATGACTGCATACCTTCTAGTTCTCTAGTGTTCACTGGAAATTAAAGACACTAAAAGTTAACAATTCTTATTAATTAATCATATTAATGTAATTGGAATTTCTAGAAATATTAGGGGAAGCAACTTTATACGCAAAGCATAACAGAAAAATAAGGTGTATTTTTTCTTTGAAACCTATGAAATATACTGGCCAGGCACGGTGGCTCATGCTTGTAATCCCAGCACTTTGGGAAGCTGAAGCGGTGGATCACCTGAGCTCAGGAGTCCGAGACCAGCTGGCCACATGTTGAACCATGTCTCTACTAAAATACAAAATTAGCAGTCATGTGCGGTGCTGTACCCCAGTACTCGGAGCTGGGGGGAATCGTGACCGGGTGGGTGCTGACCAAACCTGGCCCAGCGGGAAAGAGACTTTAAAACAATGGACCAAACTGCACAAGCTCTGCCACACTTGTCGAACCCGTGGACGCACAAGAAAAGGGCATCTGGACCTGGAATAACGAAACGACACATCT
B6: SEQ_ID_#787 (nucleic acid, listed as Homo sapiens)
DNA: TTTGGTACAGAATGAAACCGTTCTCTTTGAAGAACTGCATGTTTCCCCCAGTCATTTTTGTCCTGGGGGAGTCAAGTGTTTTTACGGACCCTTGAAGCTTGAGGACACTCTGGCATCACCCATTGTTGGGGTGACTTTCTGGTGATTATCAGTGAGCAAACTTCAAGGCCAGCTCCGATTAGGAAAATCTGCCAAGTGTGAGTTTCCTTGGAGCTAGGACTGGGCAGAGACCCCTGGTCCTTGGTCCGTAGGGAAGCTGGGGGATTTGGGGGGTAAGTAATGAGATCATGTCTGCAGAGGCCCCCAGCCTCTTGGAAGAAGATTCCGCTGTAATTTCTTGGAAAAAGCCAACTCCTTCCAGCCCTTTCTGCTCACACCATCTCAGTTTTCCTGGCTGG

One data set has as its system EE transcriptome. The data set can be described thus: Genome-wide microarray transcript profiling of esophageal biopsies, EE patients vs normal individuals (EE transcriptome). To be noted: transcript level in esophageal biopsies of EE patients (n=76) compared to normal individuals (n=13); Affymetrix Human Genome U133 plus 2; p<0.01. The method, then: Esophageal tissue obtained from patients previously diagnosed with EE was analyzed. Diagnosis was based on analysis of excised tissue from endoscopic biopsy. Tissues from patients with EE, as well as patients not having EE (controls) were subjected to genome-wide microarray transcript profiling (Affymetrix GeneChip). All work was performed at the Core facility at Children's Hospital Medical Center (Cincinnati Ohio).
Briefly, RNA quality was first assessed using the Agilent bioanaiyzer (Agilent Technologies, Palo Alto Calif.). Only mRNA having a ratio of 28S/18S between 1.3 and 2 were subsequently used. RNA was converted to cDNA with Superscript choice for cDNA synthesis (Invitrogen, Carlsbad Calif.) and subsequently converted to biotinylated cRNA with Enzo High Yield RNA Transcript labeling kit (Enzo Diagnostics, Farmingdale N.Y.). After hybridization to the GeneChip (Affymetrix, Santa Clara Calif.), the chips were automatically washed and stained with streptavidin-phycoerythrin using a fluidics system. The chips were scanned with a Hewlett Packard GeneArray Scanner. Over 30,000 unique genes were screened.
Levels of gene transcripts were determined from data image files, using algorithms in the Microarray Analysis Suite software (Affymetrix). Levels from chip to chip were compared by global scaling. Each gene was typically represented by a probe set of 16 to 20 probe pairs. Each probe pair consisted of a perfect match oligonucleotide and a mismatch oligonucleotide that contained a one base mismatch at a central position. Two measures of gene expression were used, absolute call and average difference. Absolute call is a qualitative measure in which each gene is assigned a call of present, marginal or absent, based on the hybridization of the RNA to the probe set. Average difference is a quantitative measure of the level of gene expression, calculated by taking the difference between […] of every probe pair and averaging the differences over the entire probe set. Data were normalized and an EE transcriptome gene list was created with results having p<0.01 (Welch t-test with or without false rate discovery) and ≥1.5-fold change.
For evaluation of EE using clinical and/or physical assessment, biopsy tissues (obtained from the distal esophagus during routine endoscopy) were submerged in formalin for routine pathological analysis with hematoxylin and eosin staining. Diagnosis was established based on the maximum eosinophil count per high power field (hpf) and basal layer expansion according to method known in the art (e.g., established criteria in Rothenberg et al., Pathogenesis and clinical features of eosinophilic esophagitis. J Allergy Clin Immunol 108 (2001) 891; Attwood et al., Esophageal eosinophilia with dysphagia. A distinct clinicopathologic syndrome. Dig Dis Sci 38 (1993)109; Fox et al., Eosinophilic esophagitis: its not just kid's stuff. Gastrointest Endosc 56 (2002) 26, each of which is expressly incorporated by reference herein in its entirety. Normal individuals (NL), n=13, served as a control and were defined as having 0 eosinophils/hpf and no basal layer expansion. Individuals with EE (n=76) were defined as having >24 eosinophils/hpf and extensive basal layer hyperplasia (expansion to about >⅓ of epithelium).
The data were analyzed by cluster analysis and ordered (standard correlation (A) and distance (B)) using Genespring software. […] Each column represented a separate individual and each line a gene. RNA from each patient was subjected to chip analysis using Affymetrix Human Genome U133 GeneChip plus 2.
Turning to ACSL5, the “Fold Change” value is given as 2.745.

On to ADAM28, for which the “Fold Change” value was found to be 2.613. Still for that read-out and setting: the figure for SAMSN1 is 7.119; for SCIN it is 3.17; for SCUBE1 it is 2.689. With SCUBE2, the “Fold Change” value was 5.502.

For SDPR, the “Fold Change” value was found to be 2.293.

With SE57-1, the “Fold Change” value was found to be 4.055. Take SEC6L1: the “Fold Change” value worked out at 8.878. On the same count and under the same terms, the figure for SECTM1 is 3.282; for SEPX1 it is 2.611. Still for that read-out and setting: then SERPINB4, with 4.328.

For the molecule SFRP1, the “Fold Change” value is listed as 4.098. On the same count and under the same terms, then SGK, with 3.139; and SH2D1B, with 3.098. Same read-out and setting: the figure for SH3RF2 is 3.122; for SIDT1 it is 4.822; for SIGLEC6 it is 3.199. Turning to SLC15A1, the “Fold Change” value is recorded as 2.792. Same read-out and setting: then B1, with 4.822; and B2, with 4.547; and B3, with 4.374.

The same data set, now with this note: transcript level in esophageal biopsies of EE patients compared to normal individuals (NL); Affymetrix Human Genome U133 plus 2; p<0.01; >1 up-regulated, <1 down-regulated.
In the case of 13CDNA73, the “Fold Change” value is 0.632. The same measure, in the same setting: then AADAT, with 0.608. Same read-out and setting: the figure for ABCC1 is 0.622; for ABHD6 it is 0.609; for ACADL it is 0.588. Still for that read-out and setting: then ACOX2, with 0.592. Consider ADAMTS17, for which the “Fold Change” value amounted to 0.631. The same measure, in the same setting: then ADAR, with 1.509. On the same count and under the same terms, then SAMD9, with 0.634; and SC5DL, with 0.6; and SCEL, with 0.631.

On to SCYL2, for which the “Fold Change” value is listed as 1.507. On the same count and under the same terms, the figure for SEC24C is 0.647; for SF3B3 it is 0.655; for SFRS5 it is 0.666. Same read-out and setting: then SGPL1, with 0.63; and SH3BP5, with 0.622. As to B4, the “Fold Change” value came to 1.52. For the molecule B5, the “Fold Change” value is on record as 1.53. The same measure, in the same setting: then B6, with 1.528.
